For experiment [1], the target named is T1, Adrenergic receptor alpha-1 (Rattus norvegicus, UniProt P15823+P23944+P43140).
T1 sequence (P15823 whole entry): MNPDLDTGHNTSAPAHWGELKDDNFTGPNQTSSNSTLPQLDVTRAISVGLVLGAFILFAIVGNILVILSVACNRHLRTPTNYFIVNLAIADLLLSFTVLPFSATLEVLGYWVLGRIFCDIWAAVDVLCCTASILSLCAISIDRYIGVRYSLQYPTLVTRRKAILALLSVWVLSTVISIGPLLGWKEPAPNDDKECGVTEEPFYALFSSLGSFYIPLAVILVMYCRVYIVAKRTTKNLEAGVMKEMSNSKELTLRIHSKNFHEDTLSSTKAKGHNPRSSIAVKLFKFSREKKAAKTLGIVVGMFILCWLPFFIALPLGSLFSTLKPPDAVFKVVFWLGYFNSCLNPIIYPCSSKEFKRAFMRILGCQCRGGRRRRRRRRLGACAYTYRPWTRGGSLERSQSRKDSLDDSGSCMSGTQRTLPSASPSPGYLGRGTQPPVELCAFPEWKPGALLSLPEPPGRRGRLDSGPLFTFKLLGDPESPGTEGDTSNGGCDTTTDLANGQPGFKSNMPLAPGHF
T1 sequence (P23944 whole entry): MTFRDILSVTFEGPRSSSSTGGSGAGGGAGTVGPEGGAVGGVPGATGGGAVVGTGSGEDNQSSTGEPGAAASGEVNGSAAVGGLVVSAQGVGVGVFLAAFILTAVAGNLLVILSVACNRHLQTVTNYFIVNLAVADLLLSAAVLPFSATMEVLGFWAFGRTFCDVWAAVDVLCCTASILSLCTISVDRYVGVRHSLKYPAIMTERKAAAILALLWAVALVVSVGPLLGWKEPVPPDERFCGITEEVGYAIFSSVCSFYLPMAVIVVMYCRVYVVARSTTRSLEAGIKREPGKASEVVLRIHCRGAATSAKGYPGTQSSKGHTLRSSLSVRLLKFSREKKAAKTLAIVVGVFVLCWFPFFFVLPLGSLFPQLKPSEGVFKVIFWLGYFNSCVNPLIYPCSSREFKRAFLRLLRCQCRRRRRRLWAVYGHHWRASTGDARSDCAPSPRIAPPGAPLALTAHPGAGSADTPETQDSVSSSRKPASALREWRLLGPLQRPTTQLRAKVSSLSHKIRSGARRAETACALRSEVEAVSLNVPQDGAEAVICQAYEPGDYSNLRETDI
T1 sequence (P43140 whole entry): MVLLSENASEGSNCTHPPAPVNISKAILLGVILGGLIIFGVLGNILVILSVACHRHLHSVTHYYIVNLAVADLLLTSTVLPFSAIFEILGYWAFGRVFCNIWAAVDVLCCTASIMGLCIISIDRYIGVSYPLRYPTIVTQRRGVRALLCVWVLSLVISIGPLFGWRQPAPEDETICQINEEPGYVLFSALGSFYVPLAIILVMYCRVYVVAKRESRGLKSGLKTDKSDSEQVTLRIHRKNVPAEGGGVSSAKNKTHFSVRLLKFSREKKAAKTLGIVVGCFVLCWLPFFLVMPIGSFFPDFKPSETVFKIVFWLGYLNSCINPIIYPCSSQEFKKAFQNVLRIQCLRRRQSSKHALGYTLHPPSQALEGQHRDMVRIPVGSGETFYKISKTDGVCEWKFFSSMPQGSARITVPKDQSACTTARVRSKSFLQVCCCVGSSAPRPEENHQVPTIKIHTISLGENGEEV
Description: In vitro radioligand binding assay on adrenaline Alpha-1 adrenergic receptor of rat cortex using [3H]- prazosin. Format: tissue-based.

Experiment [2] addresses T2, 5-hydroxytryptamine receptor 1A (Rattus norvegicus, UniProt P19327).
T2 sequence (P19327 whole entry): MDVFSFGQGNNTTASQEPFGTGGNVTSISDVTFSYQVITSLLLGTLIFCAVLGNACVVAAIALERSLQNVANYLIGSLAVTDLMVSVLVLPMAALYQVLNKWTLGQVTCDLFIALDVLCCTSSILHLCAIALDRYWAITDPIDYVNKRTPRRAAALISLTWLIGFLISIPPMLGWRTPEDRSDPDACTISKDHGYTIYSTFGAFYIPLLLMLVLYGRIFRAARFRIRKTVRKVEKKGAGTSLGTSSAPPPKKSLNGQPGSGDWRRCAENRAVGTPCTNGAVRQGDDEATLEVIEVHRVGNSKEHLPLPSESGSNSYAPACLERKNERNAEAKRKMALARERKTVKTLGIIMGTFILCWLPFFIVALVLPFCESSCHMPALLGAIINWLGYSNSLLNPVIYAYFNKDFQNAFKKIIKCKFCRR
Description: Displacement of [3H]8-OH-DPAT from rat hippocampal 5-hydroxytryptamine 1A receptor. In kind it is tissue-based, Hippocampus. A general note: Loss of bound radioactivity is the signal in a displacement assay; it reports binding, not function.

The target of experiment [3] is D(2) dopamine receptor (Rattus norvegicus, UniProt P61169). Description: In vitro radioligand binding assay on Dopamine receptor D2 of rat striatum using [3H]- spiperone. Format: tissue-based.
Experiment [4] addresses T2, 5-hydroxytryptamine receptor 1A. Description: In vitro radioligand binding assay on 5-hydroxytryptamine 1A receptor using [3H]8-OH-DPAT in rat hippocampus. Format: tissue-based.

Values joined by “and” are separate entries in the source; they are usually repeats but may differ in a detail not shown here. Equal entries are not always repeated.

D(2) dopamine receptor, sequence (P61169 whole entry): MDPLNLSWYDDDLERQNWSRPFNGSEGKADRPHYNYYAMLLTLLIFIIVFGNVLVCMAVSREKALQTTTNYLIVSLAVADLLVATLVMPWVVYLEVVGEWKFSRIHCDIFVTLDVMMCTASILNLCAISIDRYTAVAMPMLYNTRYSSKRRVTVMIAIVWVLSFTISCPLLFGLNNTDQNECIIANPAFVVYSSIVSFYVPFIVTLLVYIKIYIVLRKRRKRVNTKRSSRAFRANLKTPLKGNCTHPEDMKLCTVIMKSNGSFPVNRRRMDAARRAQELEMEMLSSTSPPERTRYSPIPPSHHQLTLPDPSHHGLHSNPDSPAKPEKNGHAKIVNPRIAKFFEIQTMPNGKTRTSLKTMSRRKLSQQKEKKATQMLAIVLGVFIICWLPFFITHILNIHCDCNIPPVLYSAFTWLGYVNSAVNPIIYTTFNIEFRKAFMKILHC

Broadly, the Ki is a dissociation constant, usually derived from enzyme kinetics or from competition with a known ligand. A higher Ki goes with lower affinity. Regarding `O=C1C2C(C(=O)N1CCCCN1CCN(c3ncccn3)CC1)[C@H]1CC[C@@H]2C1` (some centres undefined), the Ki was 1260 nM in experiment [1]; 21.5 nM and 25 nM in experiment [2].
Take `COc1ccc(CCCCNCCOc2cc(C)cc3c2OCCC3)cc1`: the Ki in experiment [3] is 1.79 nM; in experiment [1] it was 35.1 nM; in experiment [2], 0.779 nM.
Taken in the same sequence, the figures for `COc1ccc(CCCCNCCOc2cc(OC)cc3c2OCCC3)cc1` were 1.75 nM, 27.9 nM and 3.07 nM.
On to `COc1ccc(CCCCNCCOc2cc(F)cc3c2OCCC3)cc1`, for which the Ki in experiment [3] is 0.259 nM; in experiment [1] it was 2.71 nM; in experiment [2] it was 0.221 nM.
One may read the IC50 as the concentration that gives 50% inhibition. A low value points to inhibition by little substance. As for `COc1ccccc1N1CCN(C[C@@H](C(=O)NC(C)(C)C)c2ccccc2)CC1`, the inhibition constant Ki in experiment [3] stood at 176 nM; in experiment [1], 897 nM; in experiment [2] it was 27.9 nM. The IC50 was 1490 nM in experiment [1] and 33.9 nM in experiment [4].
For the molecule `COc1ccc(CCCCNCCOc2cc(O)cc3c2OCCC3)cc1`, the results for the Ki in experiment [3], in experiment [1] and in experiment [2] were 1.76 nM, 98.4 nM and 0.271 nM, respectively.
In the case of `CCCN(CCC)[C@H]1CCc2c(F)ccc(O)c2C1`, the Ki was 614 nM and 400 nM in experiment [3]; 6080 nM in experiment [1]; 46 nM in experiment [2].
As for `COc1ccc(CCCCNCCOc2ccc(F)c3c2OCCC3)cc1`, the Ki in experiment [3] is 3.53 nM; in experiment [1] it was 8.77 nM; in experiment [2] it was 0.051 nM.
In the case of `COc1ccc(CCCCNCCOc2cccc3c2OCCC3)cc1`, the inhibitory constant (Ki) in experiment [3] came to 0.581 nM; in experiment [1], 5.19 nM; in experiment [2], 0.118 nM.
For `COc1ccc(CCCCNCCOc2c(F)ccc3c2OCCC3)cc1` the same measures were 21.3 nM, 71.5 nM and 0.35 nM.
On to `COc1ccc(CCCCNCCOc2cc(Cl)cc3c2OCCC3)cc1`, for which the inhibitory constant (Ki) in experiment [3] came to 0.489 nM; in experiment [1], 14.3 nM; in experiment [2], 1.29 nM.

The values above are taken from ChEMBL document CHEMBL1129995, “N-[2-[(substituted chroman-8-yl)oxy]ethyl]-4-(4-methoxyphenyl)butylamines: synthesis and wide range of antagonism at the human 5-HT1A receptor” (J Med Chem, 1997).
